Tested on: 186277-243-T-J2-PDC complex spheroid viability
Assay: Anticancer human tumor 186277-243-T-J2-PDC patient-derived colon adenocarcinoma cell line growth inhibition [POLQ]
Settings: for IC50: curve of first compound; for viability, T/C: stronger effect = lower value
Summary of the method: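 Growth inhibition in 3D: complex spheroids (tumor PDC, HUVEC, MSC) treated with POLQ inhibitor combinations; where Cmax unknown, highest tested concentration 10 microM, except SN-38 at 1 microM.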

[1] = second compound 0.0316 µM, first compound 0.0316 µM
[2] = second compound 0.0316 µM, first compound 0.1 µM
[3] = second compound 0.0316 µM, first compound 0.316 µM
[4] = second compound 0.0316 µM, first compound 1 µM
[5] = second compound 0.0316 µM, first compound 3.16 µM
[6] = second compound 0.0316 µM, first compound 10 µM
[7] = second compound 0.1 µM, first compound 0.0316 µM
[8] = second compound 0.1 µM, first compound 0.1 µM
[9] = second compound 0.1 µM, first compound 0.316 µM
[10] = second compound 0.1 µM, first compound 1 µM
[11] = second compound 0.1 µM, first compound 3.16 µM
[12] = second compound 0.1 µM, first compound 10 µM
[13] = second compound 0.316 µM, first compound 0.0316 µM
[14] = second compound 0.316 µM, first compound 0.1 µM
[15] = second compound 0.316 µM, first compound 0.316 µM
[16] = second compound 0.316 µM, first compound 1 µM
[17] = second compound 0.316 µM, first compound 3.16 µM
[18] = second compound 0.316 µM, first compound 10 µM
[19] = second compound 1 µM, first compound 0.0316 µM
[20] = second compound 1 µM, first compound 0.1 µM
[21] = second compound 1 µM, first compound 0.316 µM
[22] = second compound 1 µM, first compound 1 µM
[23] = second compound 1 µM, first compound 3.16 µM
[24] = second compound 1 µM, first compound 10 µM
[25] = second compound 3.16 µM, first compound 0.0316 µM
[26] = second compound 3.16 µM, first compound 0.1 µM
[27] = second compound 3.16 µM, first compound 0.316 µM
[28] = second compound 3.16 µM, first compound 1 µM
[29] = second compound 3.16 µM, first compound 3.16 µM
[30] = second compound 3.16 µM, first compound 10 µM
[31] = second compound 10 µM, first compound 0.0316 µM
[32] = second compound 10 µM, first compound 0.1 µM
[33] = second compound 10 µM, first compound 0.316 µM
[34] = second compound 10 µM, first compound 1 µM
[35] = second compound 10 µM, first compound 3.16 µM
[36] = second compound 10 µM, first compound 10 µM
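Note: spheroids exposed to compounds for seven days.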
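Throughout, for viability, T/C: 100% = DMSO vehicle control viability.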

`O=C(Nc1ccc(O)c(NS(=O)(=O)c2ccc(F)cc2)c1)c1ccc(-c2ccccc2)cc1` + COC1C(OC(N)=O)C(O)C(Oc2ccc3c(O)c(NC(=O)c4ccc(O)c(CC=C(C)C)c4)c(=O)oc3c2C)OC1(C)C was tested, and the IC50 (second compound 0.0316 µM) was greater than 10000 nM, the IC50 (second compound 0.1 µM) was greater than 10000 nM and the IC50 (second compound 0.316 µM) was greater than 10000 nM. The IC50 (second compound 1 µM) was greater than 10000 nM, the IC50 (second compound 3.16 µM) was greater than 10000 nM and the IC50 (second compound 10 µM) was greater than 10000 nM. The viability, T/C [1] was 89%, the viability, T/C [2] was 113% and the viability, T/C [3] was 107%. For the same molecule, the viability, T/C [4] was 99%, the viability, T/C [5] was 105% and the viability, T/C [6] was 94.3%. The viability, T/C [7] was 107%, the viability, T/C [8] was 105% and the viability, T/C [9] was 102%. The viability, T/C [10] was 98.2%, the viability, T/C [11] was 107% and the viability, T/C [12] was 93.1%. The viability, T/C [13] was 96.2%, the viability, T/C [14] was 104% and the viability, T/C [15] was 116%. It also gave a viability, T/C [16] of 104%, a viability, T/C [17] of 119% and a viability, T/C [18] of 96%. It also gave a viability, T/C [19] of 90.8%, a viability, T/C [20] of 101% and a viability, T/C [21] of 116%. The viability, T/C [22] was 95%, the viability, T/C [23] was 125% and the viability, T/C [24] was 99.4%. For the same molecule, the viability, T/C [25] was 90.1%, the viability, T/C [26] was 103% and the viability, T/C [27] was 111%. It also gave a viability, T/C [28] of 103%, a viability, T/C [29] of 105% and a viability, T/C [30] of 91.5%. It also gave a viability, T/C [31] of 91.9%, a viability, T/C [32] of 111% and a viability, T/C [33] of 103%. It also gave a viability, T/C [34] of 103%, a viability, T/C [35] of 108% and a viability, T/C [36] of 101%.
For `CC[C@@]1(O)C(=O)OCc2c1cc1n(c2=O)Cc2cc3c(CN(C)C)c(O)ccc3nc2-1` + Nc1ccc(C#CCN(C(=O)Cc2ncc(C(F)(F)F)cc2C(F)(F)F)c2ccc(F)cc2)nn1, the IC50 (second compound 0.0316 µM) was greater than 100 nM, the IC50 (second compound 0.1 µM) was greater than 100 nM and the IC50 (second compound 0.316 µM) was greater than 100 nM. For the same molecule, the IC50 (second compound 1 µM) was greater than 100 nM, the IC50 (second compound 3.16 µM) was greater than 100 nM and the IC50 (second compound 10 µM) was greater than 100 nM. It also gave a viability, T/C (second compound 0.0316 µM, first compound 0.000316 µM) of 114%, a viability, T/C (second compound 0.0316 µM, first compound 0.001 µM) of 98% and a viability, T/C (second compound 0.0316 µM, first compound 0.00316 µM) of 123%. It also gave a viability, T/C (second compound 0.0316 µM, first compound 0.01 µM) of 114%, a viability, T/C [1] of 136% and a viability, T/C [2] of 91.7%. For the same molecule, the viability, T/C (second compound 0.1 µM, first compound 0.000316 µM) was 109%, the viability, T/C (second compound 0.1 µM, first compound 0.001 µM) was 93.8% and the viability, T/C (second compound 0.1 µM, first compound 0.00316 µM) was 90.6%. It also gave a viability, T/C (second compound 0.1 µM, first compound 0.01 µM) of 129%, a viability, T/C [7] of 128% and a viability, T/C [8] of 88.1%. The viability, T/C (second compound 0.316 µM, first compound 0.000316 µM) was 92.9%, the viability, T/C (second compound 0.316 µM, first compound 0.001 µM) was 87.2% and the viability, T/C (second compound 0.316 µM, first compound 0.00316 µM) was 108%. It also gave a viability, T/C (second compound 0.316 µM, first compound 0.01 µM) of 133%, a viability, T/C [13] of 124% and a viability, T/C [14] of 83.8%. The viability, T/C (second compound 1 µM, first compound 0.000316 µM) was 97.3%, the viability, T/C (second compound 1 µM, first compound 0.001 µM) was 105% and the viability, T/C (second compound 1 µM, first compound 0.00316 µM) was 117%. It also gave a viability, T/C (second compound 1 µM, first compound 0.01 µM) of 115%, a viability, T/C [19] of 130% and a viability, T/C [20] of 81.1%. For the same molecule, the viability, T/C (second compound 3.16 µM, first compound 0.000316 µM) was 89.2%, the viability, T/C (second compound 3.16 µM, first compound 0.001 µM) was 91.5% and the viability, T/C (second compound 3.16 µM, first compound 0.00316 µM) was 104%. The viability, T/C (second compound 3.16 µM, first compound 0.01 µM) was 122%, the viability, T/C [25] was 124% and the viability, T/C [26] was 79.9%. For the same molecule, the viability, T/C (second compound 10 µM, first compound 0.000316 µM) was 111%, the viability, T/C (second compound 10 µM, first compound 0.001 µM) was 89.7% and the viability, T/C (second compound 10 µM, first compound 0.00316 µM) was 116%. For the same molecule, the viability, T/C (second compound 10 µM, first compound 0.01 µM) was 121%, the viability, T/C [31] was 107% and the viability, T/C [32] was 70.6%.
`CC1COCCN1c1cc(C2(O)CC3CCC(C2)O3)c2cnn(-c3ccn[nH]3)c2n1` (stereo not drawn) + Cc1cccc(N(C)C(=O)C2C(O)CCN2c2nc(C)cc(C(F)(F)F)c2C#N)c1 gave an IC50 (second compound 0.0316 µM) of 43.3 nM, an IC50 (second compound 0.1 µM) of 42.2 nM and an IC50 (second compound 0.316 µM) of 44 nM. It also gave an IC50 (second compound 1 µM) of 42.6 nM, an IC50 (second compound 3.16 µM) of 37.7 nM and an IC50 (second compound 10 µM) of less than 31.6 nM. For the same molecule, the viability, T/C [1] was 64.5%, the viability, T/C [2] was 11.7% and the viability, T/C [3] was 6.18%. It also gave a viability, T/C [4] of 3.85%, a viability, T/C [5] of 4.2% and a viability, T/C [6] of 4.79%. It also gave a viability, T/C [7] of 63.9%, a viability, T/C [8] of 8.95% and a viability, T/C [9] of 5.9%. It also gave a viability, T/C [10] of 3.73%, a viability, T/C [11] of 3.97% and a viability, T/C [12] of 3.76%. It also gave a viability, T/C [13] of 65.4%, a viability, T/C [14] of 12.1% and a viability, T/C [15] of 4.75%. The viability, T/C [16] was 3.38%, the viability, T/C [17] was 4.54% and the viability, T/C [18] was 3.64%. It also gave a viability, T/C [19] of 63.3%, a viability, T/C [20] of 12.2% and a viability, T/C [21] of 5.42%. For the same molecule, the viability, T/C [22] was 3.92%, the viability, T/C [23] was 4.12% and the viability, T/C [24] was 4.45%. It also gave a viability, T/C [25] of 57.4%, a viability, T/C [26] of 9.6% and a viability, T/C [27] of 5.36%. For the same molecule, the viability, T/C [28] was 3.46%, the viability, T/C [29] was 4.49% and the viability, T/C [30] was 4.05%. It also gave a viability, T/C [31] of 45.9%, a viability, T/C [32] of 8.7% and a viability, T/C [33] of 4.15%. The viability, T/C [34] was 3.16%, the viability, T/C [35] was 4.29% and the viability, T/C [36] was 3.09%.
`CCc1cc2c(N3CCc4c(cc(Cn5ccnc5)cc4-c4cn(C)nc4C(F)(F)F)C3=O)ccnc2c(OC)n1` + COC1C(OC(N)=O)C(O)C(Oc2ccc3c(O)c(NC(=O)c4ccc(O)c(CC=C(C)C)c4)c(=O)oc3c2C)OC1(C)C was tested, and the IC50 (second compound 0.0316 µM) was greater than 10000 nM, the IC50 (second compound 0.1 µM) was greater than 10000 nM and the IC50 (second compound 0.316 µM) was greater than 10000 nM. It also gave an IC50 (second compound 1 µM) greater than 10000 nM, an IC50 (second compound 3.16 µM) greater than 10000 nM and an IC50 (second compound 10 µM) greater than 10000 nM. It also gave a viability, T/C [1] of 94.6%, a viability, T/C [2] of 94% and a viability, T/C [3] of 116%. It also gave a viability, T/C [4] of 87.8%, a viability, T/C [5] of 92.6% and a viability, T/C [6] of 74.9%. The viability, T/C [7] was 97.5%, the viability, T/C [8] was 95.2% and the viability, T/C [9] was 111%. The viability, T/C [10] was 104%, the viability, T/C [11] was 86% and the viability, T/C [12] was 74.3%. For the same molecule, the viability, T/C [13] was 83.3%, the viability, T/C [14] was 105% and the viability, T/C [15] was 98%. It also gave a viability, T/C [16] of 87.8%, a viability, T/C [17] of 89.7% and a viability, T/C [18] of 73.3%. It also gave a viability, T/C [19] of 94.1%, a viability, T/C [20] of 103% and a viability, T/C [21] of 86.5%. The viability, T/C [22] was 106%, the viability, T/C [23] was 107% and the viability, T/C [24] was 74.8%. The viability, T/C [25] was 107%, the viability, T/C [26] was 100% and the viability, T/C [27] was 99.1%. The viability, T/C [28] was 93.1%, the viability, T/C [29] was 89.1% and the viability, T/C [30] was 75.5%. The viability, T/C [31] was 101%, the viability, T/C [32] was 99.7% and the viability, T/C [33] was 107%. For the same molecule, the viability, T/C [34] was 101%, the viability, T/C [35] was 109% and the viability, T/C [36] was 83.6%.

Reference: PubChem BioAssay AID1963854 (Molecular Pharmacology Branch, DTP, NCI, 2024)
